# Assay: gradient 5% acetonitrile 3 min, to 50% in 2 min, to 85% in 15 min, held 3 min, 100 µL/min
# Conditions: column: Zorbax Extend-C18 2.1 x 50 mm; eluents: water / acetonitrile, 0.1% formic acid
# Summary of the method: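 Data were gathered over 3 months by HPLC coupled to a quadrupole time-of-flight mass spectrometer, operated in positive and negative ionization mode. Mixtures of ~100 pure standards ran on a Zorbax Extend-C18 column (2.1 × 50 mm, 1.8 μm) at 100 μL/min, with water and acetonitrile each containing 0.1% formic acid and dead and dwell volumes of 40 μL and 900 μL. Retention time was read from adduct peaks picked by computer and checked manually.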
row,Compound,RP-LC retention time
1,CC1(C)Cc2cccc(OCC(=O)Nc3cccc(-c4ccn[nH]4)c3)c2O1,775 s
2,Cc1ccnc(Nc2ccc(NCCNS(=O)(=O)Cc3ccccc3)nn2)c1,570 s
3,CCn1cc(C(=O)NCc2ccc(C)o2)c2cccnc21,742 s
4,C[C@@H]1O[C@@H](O[C@H]2[C@H](Oc3cc(O)c(C(=O)CCc4ccc(O)cc4)c(O)c3)O[C@H](CO)[C@@H](O)[C@@H]2O)[C@H](O)[C@H](O)[C@H]1O,650 s
5,CCCC(=O)Nc1nc(-c2ccc3c(c2)NC(=O)C(C)O3)cs1 (stereo unspecified),806 s
6,Brc1ccc(-c2nnc(Cc3nc(-c4ccccc4)no3)o2)cc1,1100 s
7,COc1ccccc1N1CCN(S(=O)(=O)c2ccc3c(c2)CCCC(=O)N3)CC1,809 s
8,Cc1ccc2c(c1)NC(=O)c1cc(NS(=O)(=O)c3ccccc3F)ccc1O2,571 s
9,Cc1nn(-c2nc3ccccc3[nH]2)c2c1C(=O)CC(c1cccs1)C2 (stereo unspecified),967 s
10,Cn1c(=O)c(SCC(=O)NCc2cccc(Cl)c2)nc2ccccc21,819 s
11,COC1CCC12CCN(C(=O)c1ccco1)CC2 (stereo unspecified),735 s
12,O=C(Nc1ccccc1)c1cccn1Cc1noc(C2CC2)n1,885 s
13,O=C(c1cc(-c2ccncc2)n[nH]1)N1CCC(C(=O)N2CCc3ccccc3C2)CC1,614 s
14,CC1=C(c2ccc(Cl)cc2)S(=O)(=O)N=C1N1CCCN(C(=O)C(C)(C)C)CC1,900 s
15,COCCc1noc(CC2CCOC3(CCN(C(=O)NC(C)(C)C)CC3)C2)n1 (stereo unspecified),700 s

# Next, values leading:
row,RP-LC retention time,Compound
1,812 s,O=C(Nc1ccc(F)c(Cl)c1)C1CCN(S(=O)(=O)c2ccc3[nH]c(=O)ccc3c2)CC1
2,743 s,Cn1c(-c2cccc(C(=O)NCc3ccc(F)cc3F)c2)nc2cccnc21
3,969 s,Cc1nn(-c2cc(N(C)C)ncn2)c(C)c1CCC(=O)N1CCC(Cc2ccccc2)CC1
4,761 s,COC1CN(c2cccc(F)c2)C12CCN(Cc1cccc(F)c1)CC2 (stereo unspecified)
5,777 s,COc1ccc(OCC(=O)N2CCC(C(=O)NCCc3csc(-c4cccs4)n3)CC2)cc1
6,684 s,O=C(Nc1c(-c2ccccc2)nc2ccccn12)c1ccc(Br)cc1
7,988 s,Cc1ccc(NC(=O)N2CCc3nc(-c4ccccc4)ncc3C2)cc1F
8,936 s,CCOc1cc(CNC(=O)C2CCCN(c3nc4ccccc4n(CC)c3=O)C2)ccc1OC (stereo unspecified)
9,1030 s,COc1ccc(-c2noc(CS(=O)(=O)c3ccc(Cl)cc3)n2)cc1OC
10,579 s,CN1CCN(CCCNC(=O)CN2C(=O)C3CCCCN3c3ccc(C(=O)N4CCCC4)cc32)CC1 (stereo unspecified)
11,981 s,COc1ccccc1-c1nnc(-c2cccc(S(=O)(=O)N3CCCCC3)c2)o1
12,979 s,O=C(Cn1nc(N2CCSCC2)c2ccccc2c1=O)Nc1ccccc1Cl
13,797 s,O=C(c1cc(-c2ccc(F)c(F)c2)on1)N1CCC(Cn2cccn2)CC1
14,725 s,O=C(Nc1cnc(N2CCOCC2)nc1)c1ccccc1Br
15,721 s,CCN(c1ccc(F)cc1)S(=O)(=O)c1cc2n(c1)CCCNC2=O
16,633 s,O=C(Nc1cc(F)ccc1Cl)c1ccc2c(c1)nnn2CCN1CCOCC1
17,788 s,Cc1ccc(C(=O)Nc2cccc(C(F)(F)F)c2)cc1Nc1nc(-c2cccnc2)nc2c1cnn2C
18,892 s,Cc1ccc(-c2nc3nc(C)cc(NCc4ccc5c(c4)OCO5)n3n2)cc1
19,703 s,Cc1cc(C)cc(Nc2c(C(=O)N3CCCCC3C)cnc3nc(C)ccc23)c1 (stereo unspecified)
20,752 s,O=C(Cn1ccc2sccc2c1=O)Nc1ccc(F)c(F)c1
21,1170 s,O=C(NC1CCCCCC1)C1CCCN(c2nccnc2Sc2ccccc2)C1 (stereo unspecified)
